Data as given in patent publication US20130165475A1, “DEUTERIUM-ENRICHED HETEROCYCLIC COMPOUNDS AS KINASE INHIBITORS” (ASCEPION PHARMACEUTICALS, INC., priority 2010, published 2013).
Counter-ions that a name gives are not always drawn.

Assays:
EphB4 = molecular target: T1, EphB4 (Homo sapiens, UniProt P54760); test: EphB4 cell-based assay (quantitative Western blotting, PC-3 cells, Ephrin-B2 stimulated); conditions: compound at 100 nM; PC-3 human prostate cancer cells; Ephrin-B2 stimulation; read-out: % EphB4 kinase activity remains
T1 construct: EphB4 autophosphorylation in PC-3 human prostate cancer cells; host or cells: PC-3 human prostate cancer cells
T1 sequence (P54760 16-987): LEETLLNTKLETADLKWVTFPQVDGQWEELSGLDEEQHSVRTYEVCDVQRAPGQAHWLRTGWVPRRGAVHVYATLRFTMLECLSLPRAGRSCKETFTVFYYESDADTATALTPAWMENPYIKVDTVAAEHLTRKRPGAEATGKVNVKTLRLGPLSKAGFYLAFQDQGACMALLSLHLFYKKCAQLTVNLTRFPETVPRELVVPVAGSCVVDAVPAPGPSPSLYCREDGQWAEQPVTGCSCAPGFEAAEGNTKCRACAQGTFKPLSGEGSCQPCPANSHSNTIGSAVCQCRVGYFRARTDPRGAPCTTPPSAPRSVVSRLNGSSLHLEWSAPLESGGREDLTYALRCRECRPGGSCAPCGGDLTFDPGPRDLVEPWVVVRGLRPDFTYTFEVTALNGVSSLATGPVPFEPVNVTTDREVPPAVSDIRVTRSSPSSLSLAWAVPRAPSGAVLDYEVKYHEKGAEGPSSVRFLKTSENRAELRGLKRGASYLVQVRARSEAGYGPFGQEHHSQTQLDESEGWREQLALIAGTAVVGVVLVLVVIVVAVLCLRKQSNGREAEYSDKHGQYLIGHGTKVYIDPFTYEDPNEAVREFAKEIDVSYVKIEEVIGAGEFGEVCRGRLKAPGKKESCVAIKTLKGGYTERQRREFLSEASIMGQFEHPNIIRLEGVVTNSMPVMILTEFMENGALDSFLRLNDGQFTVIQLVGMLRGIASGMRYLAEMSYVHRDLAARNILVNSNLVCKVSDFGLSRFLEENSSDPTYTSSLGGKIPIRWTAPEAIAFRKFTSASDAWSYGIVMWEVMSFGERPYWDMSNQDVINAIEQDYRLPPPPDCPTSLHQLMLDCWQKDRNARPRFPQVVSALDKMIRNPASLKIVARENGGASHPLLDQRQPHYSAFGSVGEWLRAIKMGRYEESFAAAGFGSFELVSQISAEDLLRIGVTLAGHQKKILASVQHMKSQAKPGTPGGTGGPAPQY
Source text: A standard image-based quantitative Western blotting assay for EphB4 kinase activity can be used to test or screen the compounds of this invention and to identify EphB4 antagonists.
The kinase activity of EphB4 in cells depends on its autophosphorylation level stimulated by the binding to its ligand Ephrin-B2. High level of EphB4 autophosphorylation in PC-3 human prostate cancer cells (ATCC, USA) induced by the application of Ephrin-B2 to the cell culture can be observed by regular Western blotting assay.
A compound to be tested was first dissolved in DMSO to a concentration of 10 mM and stored at −20° C. On the day of screening procedure, the compound in DMSO was added into DMEM medium to a final concentration of 100 nM. Two hours later, Ephrin-B2 ([…]) was added into DMEM medium to stimulate the production of phosphor-EphB4. The phosphor-EphB4 was detected based on its molecular weight and with anti-phosphor protein antibody PY-20 in cell lysate from approximately 5×10^5 PC-3 cells by Western blotting followed by imaging quantification. The relative level of EphB4 kinase activity was quantified as the ratio between the amount of phosphor-EphB4 and that of total Actin proteins.

Rat liver microsome = test: Liver microsomal stability assay, rat; type: in vitro ADME; set-up: key: A: the percentage of a compound remains is greater than that of its deuterium non-enriched counterpart; B: a result otherwise; conditions: 40 μM, 37° C., 30 min, 1 mg/ml microsome proteins; class relative to deuterium non-enriched counterpart
Experimental: A standard liver microsomal stability assay can be used to test or screen the compounds of this invention and to identify compounds with enhanced metabolic stability due to the enrichment of deuterium in the compounds. Liver microsome proteins prepared from different species such as mouse and rat were obtained from a commercial source (Research Institute for Liver Diseases, Shanghai, China). The assay was conducted in 1.5% potassium hydrogenphosphate (K2HPO4) in the presence of liver microsome proteins at 1 mg/ml and supplemented with an […] (3.3 mM NADPH, 3.3 mM glucose-6-phosphate, 6 units/ml G6PDase, and 3.3 mM magnesium chloride). Test compound was added into the assay mixture to a final concentration of 40 μM and incubated at 37° C. for 0 or 30 minutes. The reaction was stopped by the addition of 20 μM Bifonazole/CAN. Samples were then centrifuged at 14000 rpm for 10 minutes to precipitate proteins. Supernatant were then transferred to microcentrifuge tubes and subject to reverse phase HPLC analysis to determine the concentration of test compound.
The percentage of compounds that remained in the assay reactions after a thirty-minute incubation at 37° C. is calculated as the ratio between the amount of compound remained after a thirty-minute and that after a zero-minute incubation.

PDGFRβ = molecular target: T2, PDGFRβ (Homo sapiens, UniProt P09619); test: PDGFRβ cell-based assay (ELISA, phosphor-/total PDGFRβ in transfected CHO cells); conditions: compound at 100 nM; CHO cells transfected with full length PDGFRβ; FBS stimulation; read-out: % PDGFRβ kinase activity remains
T2 construct: expressed in transfected cells; host or cells: CHO cells
Source text: A standard cell-based assay for PDGFRβ kinase activity can be used to test or screen the compounds of this invention and to identify PDGFRβ antagonists. In this example, ELISA kits (R&D Systems, Inc., Minneapolis, Minn. 55413, USA) were used.
The activity of PDGFRβ in cells depended on its autophosphorylation level by various factors including growth factors. In order to induce the cell to produce PDGFRβ, full length of PDGFRβ sequence was cloned into PC-DNA3.1 vector, the plasmid was then transfected into CHO cells. After 48 hours, the expression of PDGFRβ in transfected CHO cells was confirmed by regular western blotting.
A compound to be tested was first dissolved in DMSO to a concentration of 10 mM and stored at −20° C. One day before the screening, CHO cells transfected with full length PDGFRβ plasmid were grown in DMEM medium without the presence of serum. On the day of screening procedure, the compounds with various concentration in DMSO (from 0.5 nM to 500 nM) were added into DMEM medium, two hours later, 20% of FBS (Fetal Bovine Serum) was added into the medium to stimulate the production of phosphor-PDGFRβ. Cell lysate from approximately 5×10^5 transfected CHO cells were reacted with anti-phosphor PDGFRβ or anti-total PDGFRβ antibody in 96 well plates, in the presence of detection antibody. The phosphor-PDGFRβ or total PDGFRβ were detected with Streptavidin-HRP (R&D Systems), followed by chemiluminescent detection. The level of PDGFRβ kinase activity was quantified as the ratio between the amount of phosphor- and that of total PDGFRβ proteins.

T2 sequence (P09619 33-1106): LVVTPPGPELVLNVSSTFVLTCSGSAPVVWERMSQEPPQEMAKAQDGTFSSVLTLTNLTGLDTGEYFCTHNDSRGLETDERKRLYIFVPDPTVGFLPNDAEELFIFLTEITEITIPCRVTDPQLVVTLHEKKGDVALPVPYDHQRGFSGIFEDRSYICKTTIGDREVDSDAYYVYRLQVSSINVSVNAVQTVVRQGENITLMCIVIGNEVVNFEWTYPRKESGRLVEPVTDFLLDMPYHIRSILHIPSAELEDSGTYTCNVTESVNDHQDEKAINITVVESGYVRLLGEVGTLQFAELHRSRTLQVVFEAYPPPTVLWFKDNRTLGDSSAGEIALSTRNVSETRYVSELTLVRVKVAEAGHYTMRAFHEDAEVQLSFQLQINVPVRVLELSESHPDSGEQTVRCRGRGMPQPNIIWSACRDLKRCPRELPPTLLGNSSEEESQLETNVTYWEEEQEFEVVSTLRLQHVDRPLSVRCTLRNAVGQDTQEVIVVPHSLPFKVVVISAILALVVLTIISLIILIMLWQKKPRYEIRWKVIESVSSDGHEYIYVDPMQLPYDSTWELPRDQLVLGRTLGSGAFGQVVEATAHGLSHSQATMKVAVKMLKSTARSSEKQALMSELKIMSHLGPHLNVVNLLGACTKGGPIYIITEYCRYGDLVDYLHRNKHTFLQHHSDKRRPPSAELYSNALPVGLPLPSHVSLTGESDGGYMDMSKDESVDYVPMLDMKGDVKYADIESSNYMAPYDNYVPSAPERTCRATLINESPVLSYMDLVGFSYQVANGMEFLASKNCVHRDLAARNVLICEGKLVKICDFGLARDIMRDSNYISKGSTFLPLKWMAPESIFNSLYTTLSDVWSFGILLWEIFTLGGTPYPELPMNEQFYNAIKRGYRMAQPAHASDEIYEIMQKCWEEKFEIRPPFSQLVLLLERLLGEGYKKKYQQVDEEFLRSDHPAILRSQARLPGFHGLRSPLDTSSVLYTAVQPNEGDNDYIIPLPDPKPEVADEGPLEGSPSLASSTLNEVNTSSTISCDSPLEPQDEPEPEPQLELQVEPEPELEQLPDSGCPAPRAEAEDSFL

Row | SMILES | remaining activity at 0.1 µM (EphB4) [%] | % of compound remained at the 30th minutes, Rat liver microsome (Rat liver microsome) | remaining activity at 0.1 µM (PDGFRβ) [%]
1 | Cl.[2H]C([2H])(c1ccnc(N)c1)n1ccc2c(NC(=O)Nc3cc(Cl)ccc3OC)cccc21 [Example 2, 1-[1-[(2-amino-4-pyridyl)-dideuteriomethyl]indol-4-yl]-3-(5-chloro-2-methoxyphenyl)urea hydrochloride] | < 70 | A | < 70
2 | [2H]C([2H])(c1ccnc2[nH]ccc12)N1CCc2c(NC(=O)Nc3cc(Cl)ccc3F)cccc21 [Example 11, 1-(5-Chloro-2-fluorophenyl)-3-[1-[dideuterio(1H-pyrrolo[2,3-b]pyridin-4-yl)methyl]indolin-4-yl]urea hydrochloride] | < 70 | B | < 70
3 | [2H]C([2H])(c1ccnc(N)c1)N1CCc2c(NC(=O)Nc3cc(Cl)ccc3OC)cccc21 [Example 1, 1-[1-[(2-Amino-4-pyridyl)-dideuteriomethyl]indolin-4-yl]-3-(5-chloro-2-methoxyphenyl)urea] | < 70 | A | < 70
4 | [2H]C([2H])(c1ccnc2[nH]ccc12)N1CCc2c(NC(=O)Nc3cccc(C)c3)cccc21 [Example 13, 1-[1-[Dideuterio(1H-pyrrolo[2,3-b]pyridin-4-yl)methyl]indolin-4-yl]-3-(m-tolyl)urea hydrochloride] | ≥ 70 | A | < 70
5 | [2H]C([2H])(c1ccnc2[nH]ccc12)n1ccc2c(NC(=O)Nc3cc(Cl)ccc3OC)cccc21 [Example 10, 1-(5-chloro-2-methoxyphenyl)-3-[1-[dideuterio(1H-pyrrolo[2,3-b]pyridin-4-yl)methyl]indol-4-yl]urea hydrochloride] | ≥ 70 | B | ≥ 70
6 | [2H]C(c1c[nH]c2ncccc12)N1CCc2c(NC(=O)Nc3cc(Cl)ccc3F)cccc21 (stereo not drawn) [Example 19, 1-(5-Chloro-2-fluorophenyl)-3-[1-[deuterio(1H-pyrrolo[2,3-b]pyridin-3-yl)methyl]indolin-4-yl]urea] | ≥ 70 | B | ≥ 70
7 | [2H]C([2H])([2H])Oc1ccc(Cl)cc1NC(=O)Nc1cccc2c1ccn2C([2H])([2H])c1ccnc(N)c1 [Example 4, 1-[1-[(2-amino-4-pyridyl)-dideuteriomethyl]indol-4-yl]-3-[5-chloro-2-(trideuteriomethoxy)phenyl]urea] | < 70 | A | ≥ 70
8 | Cl.[2H]C([2H])([2H])Oc1ccc(Cl)cc1NC(=O)Nc1cccc2c1CCN2C([2H])([2H])c1ccnc2[nH]ccc12 [Example 7, 1-[5-Chloro-2-(trideuteriomethoxy)phenyl]-3-[1-[dideuterio(1H-pyrrolo[2,3-b]pyridin-4-yl)methyl]indolin-4-yl]urea hydrochloride] | ≥ 70 | A | < 70
